In the supplement of paper PMC10307832:

Columns and labels:
Experiment in all cases: relative viability (nuclei count vs DMSO), 5 days (fraction); higher = more cells survive
[1] = compound: CC1=CC(=CC=C1)NC2=NC(=CS2)C3=CC=NC=C3 + Cc1cc(Nc2cc(N3CCN(C)CC3)nc(Sc3ccc(NC(=O)C4CC4)cc3)n2)n[nH]1 [Tozasertib] (partner 0.1 µM)
How it was run: (§1)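 Relative viability is defined as nuclei in treated wells over nuclei in vehicle wells. Duplicate plates were run and medians reported. Lung cancer cell lines in 1536-well plates were dosed by pin tool one day after seeding, with one drug or with a fixed anchor-drug dose plus five library-drug doses (not always all listed) in √10 steps, and nuclei were counted after 5 days.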

Masitinib + Bortezomib = compound: Cc1ccc(NC(=O)c2ccc(CN3CCN(C)CC3)cc2)cc1Nc1nc(-c2cccnc2)cs1 [Masitinib] + CC(C)C[C@H](NC(=O)[C@H](Cc1ccccc1)NC(=O)c1cnccn1)B(O)O [Bortezomib] (partner 0.002 µM)
How it was run: as §1

Masitinib + Foretinib = compound: Cc1ccc(NC(=O)c2ccc(CN3CCN(C)CC3)cc2)cc1Nc1nc(-c2cccnc2)cs1 [Masitinib] + COc1cc2c(Oc3ccc(NC(=O)C4(C(=O)Nc5ccc(F)cc5)CC4)cc3F)ccnc2cc1OCCCN1CCOCC1 [Foretinib] (partner 0.25 µM)
How it was run: as §1

Masitinib + Linsitinib = compound: Cc1ccc(NC(=O)c2ccc(CN3CCN(C)CC3)cc2)cc1Nc1nc(-c2cccnc2)cs1 [Masitinib] + C[C@]1(O)C[C@@H](c2nc(-c3ccc4ccc(-c5ccccc5)nc4c3)c3c(N)nccn32)C1 [Linsitinib] (partner 1 µM)
How it was run: as §1

Cell Line | relative viability ([1]; first compound 0.08 µM) | relative viability ([1]; first compound 0.253 µM) | relative viability ([1]; first compound 0.8 µM) | relative viability ([1]; first compound 2.53 µM) | relative viability ([1]; first compound 8 µM) | relative viability (Masitinib + Bortezomib; first compound 0.01 µM) | relative viability (Masitinib + Bortezomib; first compound 0.03162 µM) | relative viability (Masitinib + Bortezomib; first compound 0.1 µM) | relative viability (Masitinib + Bortezomib; first compound 0.3162 µM) | relative viability (Masitinib + Bortezomib; first compound 1 µM) | relative viability (Masitinib + Foretinib; first compound 0.01 µM) | relative viability (Masitinib + Foretinib; first compound 0.03162 µM) | relative viability (Masitinib + Foretinib; first compound 0.1 µM) | relative viability (Masitinib + Foretinib; first compound 1 µM) | relative viability (Masitinib + Linsitinib; first compound 0.01 µM) | relative viability (Masitinib + Linsitinib; first compound 0.03162 µM) | relative viability (Masitinib + Linsitinib; first compound 0.1 µM) | relative viability (Masitinib + Linsitinib; first compound 0.3162 µM) | relative viability (Masitinib + Linsitinib; first compound 1 µM) | relative viability (Masitinib + Foretinib; first compound 0.3162 µM)
201T | 1.04 | 0.94 | 0.961 | 0.804 | 0.692 | 0.918 | 1.09 | 0.99 | 1.09 | 1.07 | 0.89 | 1.21 | 1.02 | 1.11 | 0.881 | 0.977 | 1.01 | 0.851 | 1.01 | 
A549 |  |  |  |  |  |  |  |  |  |  | 0.881 | 0.826 | 1 | 1.23 | 0.576 | 0.602 | 0.667 | 0.681 | 0.545 | 0.898
A-427 | 0.245 | 0.185 | 0.216 | 0.213 | 0.192 |  | 0.977 |  | 0.99 | 1.06 |  | 1.13 |  | 1 |  | 1.06 |  | 1.18 | 1.07 | 1.01
ABC-1 | 0.206 | 0.173 | 0.176 | 0.187 | 0.237 | 0.324 | 0.296 | 0.287 | 0.306 | 0.256 | 0.93 | 1.07 | 1.21 | 1 | 0.78 | 0.78 | 0.982 | 0.871 | 0.622 | 1.05
BEN | 0.437 | 0.557 | 0.512 | 0.479 | 0.563 | 1.15 | 0.662 | 0.874 | 0.666 | 0.831 | 0.702 |  | 0.745 | 0.461 | 1.04 | 0.858 | 1.19 | 1.23 | 0.939 | 0.705
CAL-12T | 0.381 | 0.277 | 0.32 | 0.25 | 0.185 | 0.852 | 1.05 | 1.06 | 1.07 | 0.713 | 1.05 | 1.16 | 1.15 | 0.933 | 0.769 | 0.751 | 0.94 | 0.904 | 0.805 | 1.07
COR-L23 | 0.186 | 0.189 | 0.155 | 0.172 | 0.099 | 0.924 | 0.806 | 1.11 | 1.26 | 0.972 | 0.935 | 1.05 | 1.1 | 0.92 | 1.11 | 0.923 | 1 | 1.07 | 1.05 | 1.02
COR-L 105 | 0.348 | 0.296 | 0.282 | 0.381 | 0.372 | 0.695 | 0.699 | 0.823 | 0.823 | 0.725 | 1.01 | 0.906 | 1.06 | 0.726 | 0.993 | 0.973 | 0.921 | 0.753 | 0.881 | 0.901
Calu-6 |  |  |  |  |  | 0.903 | 1.04 | 1.07 | 0.774 | 0.876 | 0.814 | 0.822 | 0.931 | 0.862 | 0.815 | 0.916 | 1.06 | 0.997 | 0.902 | 0.825
